From article PMC5623949, “Exploiting the 2-Amino-1,3,4-thiadiazole Scaffold To Inhibit Trypanosoma brucei Pteridine Reductase in Support of Early-Stage Drug Discovery” (ACS Omega, 2017)
Where two headings read alike, the source gives them in different places.

Tests used:
[1] = molecular target: T1, hERG (Homo sapiens, UniProt Q12809); design: hERG inhibition liability assay
T1 construct: gene KCNH2
Method: (§1) Independent of the effect of any antiparasitic potential of compounds, they were evaluated using a panel of early-toxicity assays comprising cytotoxicity (A549, human lung adenocarcinoma epithelial cell line and WI-38, human lung fibroblasts), mitochondrial toxicity (786-O, human renal carcinoma cell line), hERG inhibition,[31] cytochrome P450 inhibition (CYP1A2, CYP2C9, CYP2C19, CYP2D6, and CYP3A4),[31] and Aurora B kinase inhibition. […] For the two compounds active against TbPTR1 (4m and 4o), IC50 against hERG, cytochrome P450, and mitochondrial toxicity were determined (reported in Supporting Information). We observed that the dose of compounds 4m, 4o, 4c, and 3k was 4 μM in the potentiation assays. […] In the case of hERG, CYP2D6, CYP2A9, CYP2C19, and mitochondrial toxicity, there is a selectivity index of around 3–4 fold, thus showing an acceptable profile.  Figure 10 Summary heat map of the in vitro assays to determine possible liability issues for all synthesized compounds. Assays were performed to assess inhibition of hERG and five CYP isoforms (1A2, 2C9, 2C19, 2D6, and 3A4), growth inhibition of A549 and W1-38 cell lines, and mitochondrial toxicity at 10 μM. The hDHFR inhibition was determined at 100 μM. The data, expressed as percentage values, were organized by adopting a color code for rapid and intuitive visualization. The ideal compound should have all tiles blue, indicating a safe toxicological profile for progressing into the development pipeline. The cells are colored from blue (100% of cell growth at the tested concentration) to red (0% of cell growth at the tested concentration) for A549 and W1-38 and from blue (0% of inhibitory activity at the tested concentration) to red (100% of inhibitory activity at the tested concentration) for CYP isoforms, hERG, hDHFR, and mitochondrial toxicity.

[2] = in vitro; design: cytotoxicity, per cent cell growth of A549 cells; details: human, a549 cells; read-out: % cell growth A549 at 10uM
Method: as §1

[3] = molecular target: CYP2D6 (Homo sapiens, UniProt P10635); experiment: in vitro; design: cytochrome P450 isoform inhibition liability assay
Method: as §1

[4] = molecular target: T2, CYP1A2 (Homo sapiens, UniProt P05177); experiment: in vitro; design: cytochrome P450 isoform inhibition liability assay
T2 sequence (P05177 1-516): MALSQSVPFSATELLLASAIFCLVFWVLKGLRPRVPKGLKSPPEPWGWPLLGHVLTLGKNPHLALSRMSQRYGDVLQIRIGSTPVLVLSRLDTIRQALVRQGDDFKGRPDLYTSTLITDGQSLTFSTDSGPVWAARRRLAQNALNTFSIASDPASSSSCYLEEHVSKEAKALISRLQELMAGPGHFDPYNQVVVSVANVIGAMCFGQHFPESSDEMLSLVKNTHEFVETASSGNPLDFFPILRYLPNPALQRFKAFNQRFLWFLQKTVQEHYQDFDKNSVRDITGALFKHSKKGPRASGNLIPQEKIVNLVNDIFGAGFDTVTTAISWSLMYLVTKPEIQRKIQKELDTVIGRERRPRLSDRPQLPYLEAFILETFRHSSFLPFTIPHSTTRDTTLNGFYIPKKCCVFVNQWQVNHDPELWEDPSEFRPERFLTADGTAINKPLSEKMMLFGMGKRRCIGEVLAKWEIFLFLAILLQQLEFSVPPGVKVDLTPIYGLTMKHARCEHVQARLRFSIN
Method: as §1

[5] = molecular target: CYP2C9 (Homo sapiens, UniProt P11712); experiment: in vitro; design: cytochrome P450 isoform inhibition liability assay
Method: as §1

[6] = molecular target: CYP2C19 (Homo sapiens, UniProt P33261); experiment: in vitro; design: cytochrome P450 isoform inhibition liability assay
Method: as §1

[7] = molecular target: CYP3A4 (Homo sapiens, UniProt P08684); experiment: in vitro; design: cytochrome P450 isoform inhibition liability assay
Method: as §1

[8] = in vitro; design: cytotoxicity, per cent cell growth of WI-38 fibroblasts; details: human, wi-38 cells; read-out: % cell growth W1-38 at 10uM
Method: as §1

[9] = molecular target: T3, TbPTR1 (Trypanosoma brucei brucei, UniProt O76290); experiment: biochemical; details: 50 μM compound; read-out: % Inhibition TbPTR1 at 50 μM
T3 construct: made in house
T3 sequence (O76290 1-268): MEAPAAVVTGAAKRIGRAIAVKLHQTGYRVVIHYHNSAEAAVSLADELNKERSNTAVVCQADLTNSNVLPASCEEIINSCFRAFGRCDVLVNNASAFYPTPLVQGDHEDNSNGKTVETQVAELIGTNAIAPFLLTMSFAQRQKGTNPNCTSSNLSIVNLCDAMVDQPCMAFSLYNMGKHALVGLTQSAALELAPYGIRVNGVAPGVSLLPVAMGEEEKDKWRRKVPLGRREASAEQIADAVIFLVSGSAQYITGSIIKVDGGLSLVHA

[10] = tested on: 786-O; experiment: cells; design: mitochondrial toxicity in 786-O renal carcinoma cells; details: Homo sapiens, 786-0; mitochondrial toxicity
Method: as §1

[11] = tested on: T. b. brucei Lister 427 bloodstream forms; experiment: In vitro activity against T. brucei (HTS SYBR Green I growth inhibition assay); type: cell-based, Trypanosoma brucei brucei; details: Trypanosoma brucei, 50 μM; standard deviation within ±10% of the value; read-out: % Inhibition T. brucei at 50 μM

Sequence of CYP3A4 (P08684 whole entry, canonical isoform): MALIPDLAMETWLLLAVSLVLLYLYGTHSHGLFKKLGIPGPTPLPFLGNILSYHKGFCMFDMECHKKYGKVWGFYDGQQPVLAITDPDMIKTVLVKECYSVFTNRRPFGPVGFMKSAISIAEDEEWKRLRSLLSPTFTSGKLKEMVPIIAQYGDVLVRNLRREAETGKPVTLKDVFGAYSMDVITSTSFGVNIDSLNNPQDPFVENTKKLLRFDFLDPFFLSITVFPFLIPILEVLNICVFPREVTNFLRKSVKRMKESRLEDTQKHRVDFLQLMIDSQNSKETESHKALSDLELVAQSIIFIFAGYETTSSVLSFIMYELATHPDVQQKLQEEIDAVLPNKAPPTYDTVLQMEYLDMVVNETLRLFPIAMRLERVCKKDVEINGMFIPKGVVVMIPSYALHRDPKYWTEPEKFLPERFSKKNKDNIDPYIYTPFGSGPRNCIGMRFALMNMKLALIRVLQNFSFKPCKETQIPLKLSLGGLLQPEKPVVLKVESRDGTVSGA
Sequence of CYP2C9 (P11712 whole entry, canonical isoform): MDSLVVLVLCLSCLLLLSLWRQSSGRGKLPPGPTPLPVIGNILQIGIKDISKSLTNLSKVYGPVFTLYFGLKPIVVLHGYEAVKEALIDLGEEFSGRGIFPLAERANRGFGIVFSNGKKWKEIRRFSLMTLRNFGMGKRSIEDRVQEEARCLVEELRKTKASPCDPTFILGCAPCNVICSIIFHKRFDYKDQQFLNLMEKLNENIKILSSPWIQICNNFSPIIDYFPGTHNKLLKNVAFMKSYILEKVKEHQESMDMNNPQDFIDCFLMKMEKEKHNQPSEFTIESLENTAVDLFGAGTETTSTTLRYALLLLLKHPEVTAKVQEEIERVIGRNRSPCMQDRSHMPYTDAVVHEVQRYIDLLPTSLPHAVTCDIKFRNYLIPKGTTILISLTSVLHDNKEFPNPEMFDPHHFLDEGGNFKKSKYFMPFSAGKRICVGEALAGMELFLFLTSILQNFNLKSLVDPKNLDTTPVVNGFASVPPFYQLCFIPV
Sequence of CYP2C19 (P33261 whole entry, canonical isoform): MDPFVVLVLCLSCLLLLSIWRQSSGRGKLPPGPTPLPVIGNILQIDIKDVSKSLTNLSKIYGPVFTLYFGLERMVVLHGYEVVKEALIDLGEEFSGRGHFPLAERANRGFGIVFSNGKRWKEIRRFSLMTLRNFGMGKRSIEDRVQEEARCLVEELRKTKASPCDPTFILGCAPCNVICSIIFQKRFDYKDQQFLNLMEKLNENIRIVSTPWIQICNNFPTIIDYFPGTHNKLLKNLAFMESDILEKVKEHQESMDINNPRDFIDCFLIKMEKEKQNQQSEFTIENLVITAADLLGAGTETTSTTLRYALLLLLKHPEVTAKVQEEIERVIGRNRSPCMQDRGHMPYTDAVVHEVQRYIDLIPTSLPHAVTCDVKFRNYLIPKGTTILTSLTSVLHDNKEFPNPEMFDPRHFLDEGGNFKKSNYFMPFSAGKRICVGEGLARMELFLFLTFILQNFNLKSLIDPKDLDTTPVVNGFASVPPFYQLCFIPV
T1 sequence (Q12809 whole entry): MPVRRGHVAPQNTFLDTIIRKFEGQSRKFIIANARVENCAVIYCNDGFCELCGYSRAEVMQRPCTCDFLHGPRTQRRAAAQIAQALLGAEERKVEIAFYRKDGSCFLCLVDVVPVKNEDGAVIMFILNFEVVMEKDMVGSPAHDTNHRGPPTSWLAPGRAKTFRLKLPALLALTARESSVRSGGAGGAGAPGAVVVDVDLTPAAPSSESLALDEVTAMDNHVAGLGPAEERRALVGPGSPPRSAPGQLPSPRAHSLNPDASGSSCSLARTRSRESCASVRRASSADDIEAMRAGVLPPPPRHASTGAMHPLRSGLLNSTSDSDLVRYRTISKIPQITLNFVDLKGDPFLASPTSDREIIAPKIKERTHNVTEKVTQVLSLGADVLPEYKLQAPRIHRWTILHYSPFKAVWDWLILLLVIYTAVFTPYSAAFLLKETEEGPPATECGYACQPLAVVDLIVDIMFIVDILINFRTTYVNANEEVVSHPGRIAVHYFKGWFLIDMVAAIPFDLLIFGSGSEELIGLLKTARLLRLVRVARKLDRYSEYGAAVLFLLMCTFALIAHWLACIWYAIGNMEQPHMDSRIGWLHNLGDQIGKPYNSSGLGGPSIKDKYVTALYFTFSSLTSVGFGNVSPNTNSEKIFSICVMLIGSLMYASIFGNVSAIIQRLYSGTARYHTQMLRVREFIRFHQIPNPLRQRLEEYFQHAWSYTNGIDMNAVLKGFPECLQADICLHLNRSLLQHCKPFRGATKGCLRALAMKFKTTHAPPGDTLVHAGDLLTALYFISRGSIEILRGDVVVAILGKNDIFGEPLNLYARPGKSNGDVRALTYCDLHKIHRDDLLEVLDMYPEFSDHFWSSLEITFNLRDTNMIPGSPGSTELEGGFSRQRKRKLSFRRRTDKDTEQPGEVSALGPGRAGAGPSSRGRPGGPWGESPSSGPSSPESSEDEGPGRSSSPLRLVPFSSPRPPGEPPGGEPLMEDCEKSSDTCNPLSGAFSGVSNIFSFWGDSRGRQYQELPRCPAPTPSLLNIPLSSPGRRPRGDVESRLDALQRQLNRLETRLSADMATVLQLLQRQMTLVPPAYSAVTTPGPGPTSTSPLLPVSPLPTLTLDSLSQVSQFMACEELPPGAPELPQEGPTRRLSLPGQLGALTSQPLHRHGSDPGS
Sequence of CYP2D6 (P10635 whole entry, canonical isoform): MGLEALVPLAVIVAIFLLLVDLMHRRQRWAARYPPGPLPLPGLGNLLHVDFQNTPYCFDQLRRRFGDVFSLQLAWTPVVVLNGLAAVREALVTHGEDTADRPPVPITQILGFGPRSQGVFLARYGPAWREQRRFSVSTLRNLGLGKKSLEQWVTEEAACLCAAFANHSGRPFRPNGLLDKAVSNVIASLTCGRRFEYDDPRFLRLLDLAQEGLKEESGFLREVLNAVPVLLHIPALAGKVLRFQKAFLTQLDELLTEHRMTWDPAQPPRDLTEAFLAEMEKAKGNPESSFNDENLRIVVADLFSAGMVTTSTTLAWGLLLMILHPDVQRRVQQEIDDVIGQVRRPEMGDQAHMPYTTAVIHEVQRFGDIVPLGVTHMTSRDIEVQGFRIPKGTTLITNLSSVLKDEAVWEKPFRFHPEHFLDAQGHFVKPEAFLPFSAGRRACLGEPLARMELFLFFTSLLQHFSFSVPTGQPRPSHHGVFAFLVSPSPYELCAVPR

SMILES	inhibition at 10 µM [1] [%]	viability at 10 µM [2] [%]	inhibition at 10 µM [3] [%]	inhibition at 10 µM [4] [%]	inhibition at 10 µM [5] [%]	inhibition at 10 µM [6] [%]	inhibition at 10 µM [7] [%]	viability at 10 µM [8] [%]	inhibition at 50 µM [9] [%]	inhibition at 10 µM [10] [%]	inhibition at 50 µM [11] [%]
CN(C)C(=O)NCc1ccc(-c2nnc(N)s2)cc1 [1p]	6.4 ± 1.9	108.7 ± 0.45	18.5 ± 2.7	20.9 ± 3.3	36.6 ± 0.6	9.4 ± 6.5	15.1 ± 9.9	118 ± 24.8	5.3 ± 0.9	11.6 ± 10.1	< 0
Cc1nnc(N)s1 [3a]	8.2 ± 6.6	130 ± 19.1	-46 ± 4.5	-6.6 ± 2.1	-10.9 ± 5	-35.5 ± 2.4	-22.3 ± 9	130 ± 5.8	5.4 ± 0.7	-4.4 ± 14.3	< 0
Nc1nnc(-c2ccccc2)s1 [1a]	-3.3 ± 1.9	119 ± 12.5	-8.5 ± 2.2	24.8 ± 1.8	3.9 ± 2.9	76.9 ± 3.2	82.6 ± 1.6	101 ± 10.3	25.3 ± 1.2	0.9 ± 10.6	21
Nc1nnc(Cc2cccs2)s1 [3d]	16 ± 8.7	112 ± 4.9	29.6 ± 4	21.7 ± 3.4	16 ± 2	-17.4 ± 7.4	17.2 ± 4.1	105 ± 20.6	18.5 ± 0.6	-2.9 ± 14.3	7.5
Nc1nnc(-c2ccco2)s1 [1s]	-3.8 ± 3.2	132 ± 9.6	-47.6 ± 4.7	0.3 ± 4.9	-9 ± 3.5	-10.4 ± 22.5	-14.9 ± 9.7	138 ± 9.8	9 ± 0.8	1.9 ± 4.8	< 0
Nc1nnc(CCC(=O)c2ccccc2)s1 [3j]	-2.3 ± 10.2	138 ± 8.8	-30.6 ± 5.9	-13.4 ± 12.3	-30.6 ± 6.8	-35.4 ± 6.6	-22.9 ± 7.1	113 ± 8	12.9 ± 0.7	–	1.2
Nc1nnc(-c2cccc([N+](=O)[O-])c2)s1 [1k]	7 ± 5.8	113 ± 1.9	-49.3 ± 17.6	31.1 ± 2.7	12.5 ± 6.8	-28.3 ± 17.9	-14.2 ± 13.2	108 ± 16.8	15.6 ± 1.1	-5.7 ± 12.9	1.4
Nc1nnc(-c2ccc(-c3ccccc3)cc2)s1 [2a]	–	142 ± 7.3	45.4 ± 3.1	98.9 ± 0.4	76.7 ± 0.5	95.8 ± 0.7	50.6 ± 3.7	90.7 ± 4.9	10.8 ± 0.4	11.1 ± 4.1	43.1
COc1cc(CNc2nnc(N)s2)cc(OC)c1OC [4k]	21.3 ± 27.9	116 ± 3.8	23.6 ± 2.4	22.3 ± 4.1	20.2 ± 2.5	0.2 ± 10.3	11.4 ± 3.6	71.2 ± 3.6	< 0	-1.9 ± 14.9	< 0
Nc1nnc(CCc2ccccc2)s1 [3g]	-1.9 ± 1.3	109 ± 13.4	-43.9 ± 4.1	-14.9 ± 5.7	-10.5 ± 3.7	-36.5 ± 6.1	-25.6 ± 10.5	101 ± 17.5	7.6 ± 0.3	4 ± 16.1	< 0
Nc1nnc(NCc2ccccc2Cl)s1 [4d]	15.2 ± 3.6	115 ± 8.9	90.3 ± 0.9	28.2 ± 1.2	13.9 ± 3.5	-13.3 ± 10.3	10.1 ± 10.7	55.4 ± 2.4	21.8 ± 2.2	-1.6 ± 9.3	< 0
COc1ccc(CNc2nnc(N)s2)cc1OC [4j]	35.7 ± 7.1	118 ± 3.9	36.5 ± 4.4	23.9 ± 4.8	26.2 ± 1.3	5.7 ± 7.4	18.6 ± 4.2	129 ± 57.4	8.4 ± 1.2	-8.3 ± 4.5	45.1
COc1cc(-c2nnc(N)s2)cc(OC)c1OC [1e]	1 ± 1.9	114 ± 6.2	-37.2 ± 7.9	2.55 ± 3.9	-12.4 ± 3.9	-18.5 ± 3.7	-11.2 ± 10.3	105 ± 22.3	13.5 ± 0.4	–	1.4
COCCCNc1nnc(N)s1 [4s, N2G(3Gmethoxypropyl)G1,3,4GthiadiazoleG2,5Gdiamine]	3.9 ± 5.4	101 ± 11.2	-13.5 ± 10.7	-14.8 ± 3.7	-15.5 ± 7.2	-20 ± 13.9	-37.5 ± 15.3	89.6 ± 8.9	11.8 ± 0.3	-0.9 ± 11.9	< 0
Nc1nnc(Cc2ccc3ccccc3c2)s1 [3e]	-5.6 ± 3.5	141 ± 5.6	-31.7 ± 1.7	0.4 ± 1.3	-47.8 ± 3.9	-54.9 ± 9.3	-3.2 ± 3.8	105 ± 38.5	20.9 ± 0.3	4.3 ± 8.6	0.4
CN(C)C(=O)NCc1cccc(-c2nnc(N)s2)c1 [1q]	–	–	20.4 ± 3.5	7 ± 1.9	19.7 ± 3.6	19.6 ± 8.2	4.5 ± 11.4	–	2.5 ± 0.2	–	1.2
